According to ChEMBL document CHEMBL5465560, “Selectivity Literature for EUbOPEN Chemogenomic Library” (2024):

Assays:
[1] = molecular target: Hepatocyte growth factor receptor (Homo sapiens, UniProt P08581); details: at 10 µM
[2] = molecular target: Fibroblast growth factor receptor 3 (Homo sapiens, UniProt P22607); experiment: (§1) Selectivity interaction (KinomeScan (DiscoverX)) EUB0000229b FGFR3; details: at 10 µM
[3] = test system: Fibroblast growth factor receptor 3 (Homo sapiens), P22607 [G697C]; experiment: as §1; details: at 1 µM
Chain of Fibroblast growth factor receptor 3 (Homo sapiens), P22607 [G697C] (P22607 whole entry G697C): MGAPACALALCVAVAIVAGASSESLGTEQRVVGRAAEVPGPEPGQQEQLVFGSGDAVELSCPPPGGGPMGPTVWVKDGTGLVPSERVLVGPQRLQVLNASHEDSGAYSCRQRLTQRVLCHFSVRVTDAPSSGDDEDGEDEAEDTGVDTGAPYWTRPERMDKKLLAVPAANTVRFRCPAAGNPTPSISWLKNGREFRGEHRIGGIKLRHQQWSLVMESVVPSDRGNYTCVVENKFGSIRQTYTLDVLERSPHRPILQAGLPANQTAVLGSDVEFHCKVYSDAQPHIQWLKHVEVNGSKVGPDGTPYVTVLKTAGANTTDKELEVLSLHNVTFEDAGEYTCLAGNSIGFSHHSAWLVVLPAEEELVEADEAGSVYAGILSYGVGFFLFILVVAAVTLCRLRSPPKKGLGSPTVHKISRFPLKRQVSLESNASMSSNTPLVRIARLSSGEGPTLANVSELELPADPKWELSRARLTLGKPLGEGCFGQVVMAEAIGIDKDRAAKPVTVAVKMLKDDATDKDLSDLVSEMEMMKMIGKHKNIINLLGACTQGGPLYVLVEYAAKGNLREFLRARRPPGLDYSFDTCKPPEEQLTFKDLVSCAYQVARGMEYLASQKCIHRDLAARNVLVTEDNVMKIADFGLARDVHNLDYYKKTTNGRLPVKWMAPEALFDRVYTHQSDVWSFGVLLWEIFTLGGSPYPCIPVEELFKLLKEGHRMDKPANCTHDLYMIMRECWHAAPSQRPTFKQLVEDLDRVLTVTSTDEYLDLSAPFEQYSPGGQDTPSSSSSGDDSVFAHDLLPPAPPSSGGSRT

[4] = molecular target: Phosphatidylinositol 4-phosphate 5-kinase type-1 alpha (Homo sapiens) (UniProt Q99755); experiment: Selectivity interaction (KinomeScan (DiscoverX)) EUB0000092b PIP5K1A; details: at 10 µM
Chain of Phosphatidylinositol 4-phosphate 5-kinase type-1 alpha (Homo sapiens) (Q99755 whole entry, canonical isoform): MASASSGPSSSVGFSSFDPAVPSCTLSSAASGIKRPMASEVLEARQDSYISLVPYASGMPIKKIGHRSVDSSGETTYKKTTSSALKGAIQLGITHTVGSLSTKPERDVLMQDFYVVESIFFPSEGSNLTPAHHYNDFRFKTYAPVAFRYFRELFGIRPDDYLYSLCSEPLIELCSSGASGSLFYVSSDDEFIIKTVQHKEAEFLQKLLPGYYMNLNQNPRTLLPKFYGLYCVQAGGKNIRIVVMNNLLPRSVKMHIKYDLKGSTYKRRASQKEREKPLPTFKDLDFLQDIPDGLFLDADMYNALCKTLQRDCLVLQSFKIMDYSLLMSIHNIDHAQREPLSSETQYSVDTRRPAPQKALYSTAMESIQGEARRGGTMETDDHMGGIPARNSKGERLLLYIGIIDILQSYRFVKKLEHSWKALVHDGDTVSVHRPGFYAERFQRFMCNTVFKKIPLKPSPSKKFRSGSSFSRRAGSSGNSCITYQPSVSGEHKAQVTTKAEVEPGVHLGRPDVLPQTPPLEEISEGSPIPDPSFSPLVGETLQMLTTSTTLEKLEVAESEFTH

[5] = molecular target: T1, Phosphatidylinositol 4,5-bisphosphate 3-kinase catalytic subunit delta isoform (Homo sapiens) (UniProt O00329); experiment: Selectivity interaction (ProQinase) EUB0000171b PIK3CD
T1 sequence (whole entry): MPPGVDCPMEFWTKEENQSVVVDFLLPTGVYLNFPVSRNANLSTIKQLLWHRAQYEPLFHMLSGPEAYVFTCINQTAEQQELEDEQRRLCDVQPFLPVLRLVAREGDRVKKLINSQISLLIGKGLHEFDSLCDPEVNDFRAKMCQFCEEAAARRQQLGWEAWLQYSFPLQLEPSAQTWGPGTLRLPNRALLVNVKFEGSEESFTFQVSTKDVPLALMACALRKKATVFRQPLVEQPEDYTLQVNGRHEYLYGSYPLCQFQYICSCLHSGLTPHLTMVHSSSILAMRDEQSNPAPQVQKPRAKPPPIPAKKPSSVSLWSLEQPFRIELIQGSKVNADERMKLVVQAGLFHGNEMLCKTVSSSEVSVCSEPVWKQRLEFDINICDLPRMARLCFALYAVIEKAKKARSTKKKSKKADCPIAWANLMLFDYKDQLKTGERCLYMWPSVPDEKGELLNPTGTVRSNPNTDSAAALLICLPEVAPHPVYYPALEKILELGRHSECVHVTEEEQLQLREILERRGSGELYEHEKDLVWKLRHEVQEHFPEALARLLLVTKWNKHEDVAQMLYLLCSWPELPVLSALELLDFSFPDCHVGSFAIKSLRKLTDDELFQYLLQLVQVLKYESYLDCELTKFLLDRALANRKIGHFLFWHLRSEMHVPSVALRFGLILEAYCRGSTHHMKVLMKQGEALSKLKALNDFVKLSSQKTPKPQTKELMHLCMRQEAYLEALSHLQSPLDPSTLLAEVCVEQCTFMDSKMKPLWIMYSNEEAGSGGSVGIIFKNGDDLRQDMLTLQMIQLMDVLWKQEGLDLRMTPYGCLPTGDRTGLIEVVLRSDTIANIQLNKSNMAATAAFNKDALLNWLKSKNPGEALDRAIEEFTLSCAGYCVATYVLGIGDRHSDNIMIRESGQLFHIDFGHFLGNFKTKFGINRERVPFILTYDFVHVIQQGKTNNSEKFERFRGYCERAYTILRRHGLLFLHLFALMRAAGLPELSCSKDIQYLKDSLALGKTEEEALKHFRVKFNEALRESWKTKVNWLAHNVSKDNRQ

[6] = Selectivity interaction (Androgen receptor agonist/antagonist FRET assay, rat recombinant ) EUB0000877a AR
[7] = molecular target: MAP kinase-activated protein kinase 2 (Homo sapiens, UniProt P49137); details: at 10 µM
Chain of MAP kinase-activated protein kinase 2 (P49137 whole entry, looked up): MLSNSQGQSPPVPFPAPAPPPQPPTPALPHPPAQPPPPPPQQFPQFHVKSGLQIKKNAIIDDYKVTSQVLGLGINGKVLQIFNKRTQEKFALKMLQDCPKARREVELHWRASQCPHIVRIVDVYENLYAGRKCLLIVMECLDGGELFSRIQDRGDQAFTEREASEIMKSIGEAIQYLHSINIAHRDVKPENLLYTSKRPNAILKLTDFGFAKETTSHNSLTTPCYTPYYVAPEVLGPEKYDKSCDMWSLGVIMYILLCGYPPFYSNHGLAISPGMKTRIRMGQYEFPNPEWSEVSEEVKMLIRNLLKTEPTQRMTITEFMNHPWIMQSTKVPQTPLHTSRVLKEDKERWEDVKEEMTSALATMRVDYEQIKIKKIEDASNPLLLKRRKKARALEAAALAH

[8] = molecular target: AP2-associated protein kinase 1 (Homo sapiens, UniProt Q2M2I8); experiment: Selectivity interaction (LanthaScreen Eu Kinase Binding Assay) EUB0001632a AAK1; details: at 10 µM
[9] = molecular target: Serine/threonine-protein kinase WNK4 (Homo sapiens) (UniProt Q96J92); experiment: Selectivity interaction (KinomeScan (DiscoverX)) EUB0001049a WNK4; details: at 1 µM
[10] = molecular target: T2, Serine/threonine-protein kinase ULK1 (Homo sapiens) (UniProt O75385); experiment: Selectivity interaction (KinomeScan (DiscoverX)) EUB0000695a ULK1; details: at 100 nM
T2 sequence (whole entry): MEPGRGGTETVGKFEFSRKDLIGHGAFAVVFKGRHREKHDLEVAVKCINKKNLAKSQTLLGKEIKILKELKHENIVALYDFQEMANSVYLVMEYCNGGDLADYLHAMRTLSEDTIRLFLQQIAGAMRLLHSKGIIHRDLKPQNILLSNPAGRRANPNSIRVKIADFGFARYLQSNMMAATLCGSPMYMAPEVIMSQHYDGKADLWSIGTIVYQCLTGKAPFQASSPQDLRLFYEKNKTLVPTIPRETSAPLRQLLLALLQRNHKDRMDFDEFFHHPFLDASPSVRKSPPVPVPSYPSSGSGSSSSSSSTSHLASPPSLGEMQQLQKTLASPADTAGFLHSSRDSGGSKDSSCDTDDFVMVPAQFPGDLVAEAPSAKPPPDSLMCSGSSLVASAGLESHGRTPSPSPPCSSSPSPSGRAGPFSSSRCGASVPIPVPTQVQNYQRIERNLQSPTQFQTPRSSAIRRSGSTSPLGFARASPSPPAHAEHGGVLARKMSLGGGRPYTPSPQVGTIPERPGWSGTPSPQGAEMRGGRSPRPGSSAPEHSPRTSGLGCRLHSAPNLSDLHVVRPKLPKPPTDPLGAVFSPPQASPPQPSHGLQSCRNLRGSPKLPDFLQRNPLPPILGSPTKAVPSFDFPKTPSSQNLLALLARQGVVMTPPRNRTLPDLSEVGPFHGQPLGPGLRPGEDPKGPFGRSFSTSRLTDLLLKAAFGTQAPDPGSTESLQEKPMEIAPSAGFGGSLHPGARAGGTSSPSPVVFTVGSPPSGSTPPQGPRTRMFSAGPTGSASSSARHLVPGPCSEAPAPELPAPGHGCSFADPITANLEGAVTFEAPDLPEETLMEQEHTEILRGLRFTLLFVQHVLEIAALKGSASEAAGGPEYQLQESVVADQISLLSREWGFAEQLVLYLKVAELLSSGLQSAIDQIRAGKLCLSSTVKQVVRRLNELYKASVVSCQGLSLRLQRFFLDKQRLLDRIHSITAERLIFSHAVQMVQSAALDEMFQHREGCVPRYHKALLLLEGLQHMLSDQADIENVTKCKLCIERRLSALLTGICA

[11] = molecular target: Tyrosine-protein kinase FRK (Homo sapiens) (UniProt P42685); experiment: Selectivity interaction (KinomeScan (DiscoverX)) EUB0000045b FRK
Chain of Tyrosine-protein kinase FRK (Homo sapiens) (P42685 whole entry): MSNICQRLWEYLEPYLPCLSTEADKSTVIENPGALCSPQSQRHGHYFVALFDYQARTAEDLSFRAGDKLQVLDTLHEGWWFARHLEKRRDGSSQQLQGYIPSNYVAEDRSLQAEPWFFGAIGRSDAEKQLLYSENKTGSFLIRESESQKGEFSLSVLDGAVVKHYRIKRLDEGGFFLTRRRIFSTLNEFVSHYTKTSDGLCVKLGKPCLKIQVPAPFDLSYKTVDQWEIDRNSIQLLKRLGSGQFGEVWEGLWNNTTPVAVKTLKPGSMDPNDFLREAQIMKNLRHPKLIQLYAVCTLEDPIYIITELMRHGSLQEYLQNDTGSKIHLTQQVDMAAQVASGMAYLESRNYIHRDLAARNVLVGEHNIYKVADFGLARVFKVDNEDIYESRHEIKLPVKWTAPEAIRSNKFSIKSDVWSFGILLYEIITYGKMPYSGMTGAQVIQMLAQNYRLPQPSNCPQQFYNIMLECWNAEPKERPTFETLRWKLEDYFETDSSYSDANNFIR

Chain of Hepatocyte growth factor receptor (P08581 whole entry): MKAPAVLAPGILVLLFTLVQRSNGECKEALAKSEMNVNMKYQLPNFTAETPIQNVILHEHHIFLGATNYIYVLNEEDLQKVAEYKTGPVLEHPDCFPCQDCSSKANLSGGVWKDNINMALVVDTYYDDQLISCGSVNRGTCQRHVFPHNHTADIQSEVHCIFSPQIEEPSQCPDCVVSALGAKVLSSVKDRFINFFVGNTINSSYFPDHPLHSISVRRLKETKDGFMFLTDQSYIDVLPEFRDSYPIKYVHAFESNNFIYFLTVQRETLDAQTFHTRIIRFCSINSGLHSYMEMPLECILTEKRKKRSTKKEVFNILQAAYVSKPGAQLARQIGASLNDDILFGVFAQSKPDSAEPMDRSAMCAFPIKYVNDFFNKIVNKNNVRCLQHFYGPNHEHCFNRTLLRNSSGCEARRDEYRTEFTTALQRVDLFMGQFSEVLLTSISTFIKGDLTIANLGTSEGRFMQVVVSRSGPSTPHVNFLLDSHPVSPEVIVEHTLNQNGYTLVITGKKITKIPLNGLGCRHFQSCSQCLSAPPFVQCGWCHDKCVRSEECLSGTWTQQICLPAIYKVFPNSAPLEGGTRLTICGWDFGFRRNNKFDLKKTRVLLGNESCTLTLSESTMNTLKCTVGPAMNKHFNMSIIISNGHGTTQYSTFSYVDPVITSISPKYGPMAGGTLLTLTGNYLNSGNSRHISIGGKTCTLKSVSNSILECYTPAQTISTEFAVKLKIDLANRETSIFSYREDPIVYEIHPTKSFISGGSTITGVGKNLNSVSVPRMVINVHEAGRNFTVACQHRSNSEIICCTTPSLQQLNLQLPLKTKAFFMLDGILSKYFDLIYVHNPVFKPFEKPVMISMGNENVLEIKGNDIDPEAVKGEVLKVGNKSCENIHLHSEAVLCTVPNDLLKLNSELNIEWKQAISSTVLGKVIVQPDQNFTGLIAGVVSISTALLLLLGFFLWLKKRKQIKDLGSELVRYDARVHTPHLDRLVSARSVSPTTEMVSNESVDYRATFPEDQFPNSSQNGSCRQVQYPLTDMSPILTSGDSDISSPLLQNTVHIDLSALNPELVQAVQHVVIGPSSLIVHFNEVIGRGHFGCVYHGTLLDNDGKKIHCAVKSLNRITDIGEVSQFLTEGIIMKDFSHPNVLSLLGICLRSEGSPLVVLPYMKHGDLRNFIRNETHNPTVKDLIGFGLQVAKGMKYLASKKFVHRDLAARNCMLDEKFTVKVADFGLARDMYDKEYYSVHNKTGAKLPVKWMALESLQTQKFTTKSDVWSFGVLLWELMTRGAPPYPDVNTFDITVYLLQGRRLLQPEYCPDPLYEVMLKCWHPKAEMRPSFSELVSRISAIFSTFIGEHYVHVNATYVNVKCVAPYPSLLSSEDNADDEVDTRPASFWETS
Chain of Fibroblast growth factor receptor 3 (P22607 23-806 limits assumed): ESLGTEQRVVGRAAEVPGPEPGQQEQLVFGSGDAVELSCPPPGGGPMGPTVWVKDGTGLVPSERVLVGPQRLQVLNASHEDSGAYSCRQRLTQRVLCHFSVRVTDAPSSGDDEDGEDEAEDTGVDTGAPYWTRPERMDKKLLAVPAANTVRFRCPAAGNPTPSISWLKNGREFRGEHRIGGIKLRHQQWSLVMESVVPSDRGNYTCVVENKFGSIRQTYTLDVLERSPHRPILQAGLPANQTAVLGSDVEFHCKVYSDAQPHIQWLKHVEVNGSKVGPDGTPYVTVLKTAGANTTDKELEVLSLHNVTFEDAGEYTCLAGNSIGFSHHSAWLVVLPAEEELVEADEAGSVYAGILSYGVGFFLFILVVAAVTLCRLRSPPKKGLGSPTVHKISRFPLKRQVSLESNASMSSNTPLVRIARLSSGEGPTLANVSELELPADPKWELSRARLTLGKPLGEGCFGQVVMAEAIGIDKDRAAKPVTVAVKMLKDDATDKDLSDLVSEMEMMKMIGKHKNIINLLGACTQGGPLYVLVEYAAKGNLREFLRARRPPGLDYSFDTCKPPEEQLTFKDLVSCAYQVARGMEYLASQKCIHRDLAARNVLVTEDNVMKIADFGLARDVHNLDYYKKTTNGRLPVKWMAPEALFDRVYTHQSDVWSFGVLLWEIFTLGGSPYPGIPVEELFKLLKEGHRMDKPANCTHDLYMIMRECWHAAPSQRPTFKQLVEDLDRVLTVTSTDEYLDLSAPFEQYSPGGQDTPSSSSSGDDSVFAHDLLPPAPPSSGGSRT

## CCN(CC)CCCCNc1ncc2cc(-c3cc(OC)cc(OC)c3)c(NC(=O)NC(C)(C)C)nc2n1
[1]
  % of control: 100%

## COc1cc(N(C)c2ccnc3ccc(C(F)(F)F)cc23)cc(OC)c1OC
[2]
  % binding: 100%
[3]
  % binding: 90%

## CCC(=O)N1CCN(c2ccc(-n3c(=O)ccc4cnc5ccc(-c6cnc7ccccc7c6)cc5c43)cc2C(F)(F)F)CC1
[4]
  % of control: 89%

## C=CC(=O)Nc1cccc(C(=O)Nc2ccc(Nc3cc(-c4[nH]c(SC)nc4C)ccn3)cc2)c1
[5]; at 1 µM
  % of control: 119%
[5]; at 5 µM
  % of control: 113%

## CCC(=O)N1CC[C@H](Nc2ncnc3c2CN(c2cnc(OC)c(C(F)(F)F)c2)CC3)C1 [LENIOLISIB]
[6]
  IC50: > 30 µM

## Cc1cc([C@@H](C)Nc2ccccc2C(=O)O)c2nc(N3CCOCC3)cc(=O)n2c1 [AZD-6482]
[7]
  % of control: 66%

## Cn1cc(-n2cnc3c(NCc4nc5cc(Cl)c(Cl)cc5[nH]4)nc(N4CCOCC4)nc32)cn1
[8]
  % of inhibition: 4.16%

## COc1cc(Nc2nc(C)cc(-c3cnn4nc(OC)ccc34)n2)cc(C(F)(F)F)c1
[9]
  % of control: 100%

## Cc1cc(F)c(C(=O)Nc2cccc(-c3nncn3C(C)C)n2)cc1-n1cnc(C2CC2)c1
[10]
  % of control: 100%

## C=CC(=O)Nc1cc(-n2c(=O)ccc3cnc4ccc(-c5ccc(NS(C)(=O)=O)cc5)cc4c32)ccc1C
[11]; at 1 µM
  % of control: 100%
[11]; at 10 µM
  % of control: 98%
